We go through three molecules from patent US11224609B2, “Mithramycin derivatives having increased selectivity and anti-cancer activity” (University of Kentucky Research Foundation, priority 2017, dated 2022).

One may read the GI50 as the concentration at which growth is held to half of that of the control.

Series [1] deals with A549 cells. The series can be described thus: 72 h GI50 assay in A549. The conditions noted are these: read-out: A549 GI50; 72 h growth inhibition.
In series [2] the test system is HeLa cells. The series can be described thus: 72 h GI50 assay in HeLa. The conditions noted are these: read-out: HeLa GI50; 72 h growth inhibition.
For series [3], the system named is LNCaP cells. The series can be described thus: 72 h GI50 assay in LNCaP. Conditions: read-out: LNCaP GI50; 72 h growth inhibition.
Series [4] deals with PC-3 (prostate cancer, no ETS translocation) cell line. The series can be described thus: 72 h growth inhibition (GI50) assay in PC-3. Conditions: read-out: PC-3 Prostate cancer No ETS Translocation GI50; 72 h growth inhibition, PC-3 cells.
Series [5] relates to ES-7 Ewing sarcoma cells (EWS-FLI1 Type 4). Briefly: 72 h GI50 assay in ES-7. Conditions: read-out: ES-7 EWS-FLI1 Type 4 GI50; 72 h growth inhibition.
Series [6] relates to PANC-1 cells. The series can be described thus: 72 h GI50 assay in PANC-1. The conditions noted are these: read-out: PANC-1 GI50; 72 h growth inhibition.
For series [7], the system named is ES-2 Ewing sarcoma cells (EWS-FLI1 Type 3). Briefly: 72 h GI50 assay in ES-2. The conditions noted are these: read-out: ES-2 EWS-FLI1 Type 3 GI50; 72 h growth inhibition.
Series [8] relates to HCT 116 cells. The series can be described thus: 72 h GI50 assay in HCT 116. Conditions: read-out: HCT 116 GI50; 72 h growth inhibition.
In series [9] the test system is TC-32 (Ewing sarcoma, EWS-FLI1 Type 1) cell line. Conditions: for TC-32 Ewing sarcoma EWS-FLI1 Type 1 GI50: 72 h growth inhibition, TC-32 cells; for GI50 ratio PC-3:TC-32: selectivity, GI50 in PC-3 over GI50 in TC-32.
Series [10] relates to TC-71 Ewing sarcoma cells (EWS-FLI1 Type 1). Conditions: 72 h growth inhibition.
Series [11] concerns 5838 Ewing sarcoma cells (EWS-ERG). The series can be described thus: 72 h GI50 assay in 5838. Conditions: for GI50: read-out: 5838 Ewing Sarcoma EWS-ERG GI50, 72 h growth inhibition, 5838 cells; for Ratio of median GI50 Non-Ewing sarcoma cell lines (cf Table 3):5838: selectivity for 5838 cells.
The test system of series [12] is VCaP prostate cancer cells (TMPRSS2-ERG). The series can be described thus: 72 h GI50 assay in VCaP. The conditions noted are these: for GI50: read-out: VCaP Prostate Cancer TMPRSS2-ERG GI50, 72 h growth inhibition, VCaP cells; for Ratio of median GI50 Prostate cells lacking TMPRSS2-ERG:VCaP: selectivity for VCaP over other prostate cancer cell lines.
Series [13] relates to prostate cell lines lacking TMPRSS2-ERG. Briefly: Median GI50 in prostate cell lines lacking TMPRSS2-ERG. Conditions: read-out: Median GI50 in prostate cell lines, lacking TMPRSS2-ERG; unit inferred.
The subject of series [14] is RD-ES Ewing sarcoma cells (EWS-FLI1 Type 2). The series can be described thus: 72 h GI50 assay in RD-ES. Conditions: read-out: RD-ES EWS-FLI1 Type 2 GI50; 72 h growth inhibition.
The subject of series [15] is A-673 Ewing sarcoma cells (EWS-FLI1 Type 1). The series can be described thus: 72 h GI50 assay in A-673. Conditions: read-out: A-673 EWS-FLI1 Type 1 GI50; 72 h growth inhibition.
Series [16] has as its system ES-8 Ewing sarcoma cells (EWS-FLI1 Type 2). Briefly: 72 h GI50 assay in ES-8. The conditions noted are these: read-out: ES-8 EWS-FLI1 Type 2 GI50; 72 h growth inhibition.
The test system of series [17] is Ewing sarcoma cell lines (TC-32, 5838, RD-ES, TC-71, A-673, ES-2, ES-7, ES-8). Briefly: Median GI50 in panel of Ewing sarcoma cell lines. The conditions noted are these: for Ratio of Median GI50 non-Ewing sarcoma:Ewing sarcoma (Selectivity Index): median GI50 non-Ewing panel over Ewing panel; for Selectivity Index ratio Analogues:MTM (1): selectivity index relative to MTM (1); for GI50: read-out: Median GI50 in Ewing sarcoma cell lines, median over 8 Ewing sarcoma cell lines, 72 h.

The subject of series [18] is DU 145 cells. Briefly: 72 h GI50 assay in DU 145. The conditions noted are these: read-out: DU 145 GI50; 72 h growth inhibition.
The test system of series [19] is DMS 114 cells. Briefly: 72 h GI50 assay in DMS 114. Conditions: read-out: DMS 114 GI50; 72 h growth inhibition.

Take `COC(=O)C(Cc1cn(C)c2ccccc12)NC(=O)C(OC)C1Cc2cc3cc(OC4CC(OC5CC(O)C(O)C(C)O5)C(O)C(C)O4)c(C)c(O)c3c(O)c2C(=O)C1OC1CC(OC2CC(OC3CC(C)(O)C(O)C(C)O3)C(O)C(C)O2)C(O)C(C)O1` (stereo not drawn) [Analogue 45]: the GI50 amounted to 2.37 µM in series [1]; 1.76 µM in [2]; 1.86 µM in [3]; 1.56 µM in series [4]; 0.672 µM in series [5]; 1.73 µM in series [6]. Also, the 50% growth inhibitory concentration (GI50) in [7] worked out at 1.5 µM; in [8], 0.826 µM; in series [11], 0.121 µM; in [12], 0.307 µM; in series [13] it was 1560 nM; in series [14], 0.539 µM. Besides, the concentration for 50% growth inhibition (GI50) in [15] came to 1.01 µM; in series [16] it was 1.33 µM; in series [18], 0.761 µM; in [19], 1.05 µM. The “TC-32 Ewing sarcoma EWS-FLI1 Type 1 GI50” value in series [9] stood at 0.139 µM. Further, the “fold increase in selectivity” value in series [9] (PC-3:TC-32 selectivity, comparator not stated) is recorded as roughly 4 fold. Besides, in series [9], the “GI50 ratio PC-3:TC-32” value is listed as 11.2. Moreover, the “TC-71 EWS-FLI1 Type 1 GI50” value in [10] was found to be 0.696 µM. The “Ratio of median GI50 Non-Ewing sarcoma cell lines (cf Table 3):5838” value in [11] is 13.3. Also, in series [12], the “Ratio of median GI50 Prostate cells lacking TMPRSS2-ERG:VCaP” value turned out to be 5.1. For the same molecule, in series [17], the “Ratio of Median GI50 non-Ewing sarcoma:Ewing sarcoma (Selectivity Index)” value is on record as 2.4. Besides, the “Selectivity Index ratio Analogues:MTM (1)” value in [17] is reported as 1.6.

For `C=CCOc1ccc2[nH]cc(CC(NC(=O)C(OC)C3Cc4cc5cc(OC6CC(OC7CC(O)C(O)C(C)O7)C(O)C(C)O6)c(C)c(O)c5c(O)c4C(=O)C3OC3CC(OC4CC(OC5CC(C)(O)C(O)C(C)O5)C(O)C(C)O4)C(O)C(C)O3)C(=O)OC)c2c1` (stereo not drawn) [Analogue 51], the GI50 is 1.54 µM in series [1]; 1.71 µM in [2]; 2.23 µM in series [3]; 0.454 µM in series [4]; 1.66 µM in series [5]; 0.532 µM in series [6]. In addition, the 50% growth inhibitory concentration (GI50) worked out at 5.37 µM in series [7]; 0.38 µM in [8]; 0.024 µM in [11]; 0.485 µM in [12]; 454 nM in series [13]; 0.843 µM in [14]. Moreover, the GI50 in [15] stood at 0.272 µM; in series [16], 0.09 µM; in [17] it was 0.485 µM; in [18], 0.298 µM; in series [19], 2.84 µM. Also, the “TC-32 Ewing sarcoma EWS-FLI1 Type 1 GI50” value in series [9] was found to be 0.053 µM. In addition, in [9], the “GI50 ratio PC-3:TC-32” value was 8.6. Besides, the “TC-71 EWS-FLI1 Type 1 GI50” value in series [10] was determined as 0.636 µM. The “Ratio of median GI50 Non-Ewing sarcoma cell lines (cf Table 3):5838” value in [11] was found to be 22.2. Further, in [12], the “Ratio of median GI50 Prostate cells lacking TMPRSS2-ERG:VCaP” value is listed as 0.9. The “Ratio of Median GI50 non-Ewing sarcoma:Ewing sarcoma (Selectivity Index)” value in series [17] turned out to be 1.1. For the same molecule, the “Selectivity Index ratio Analogues:MTM (1)” value in series [17] is on record as 0.7.

Turning to `COC(=O)C(Cc1c[nH]c2cc(F)ccc12)NC(=O)C(OC)C1Cc2cc3cc(OC4CC(OC5CC(O)C(O)C(C)O5)C(O)C(C)O4)c(C)c(O)c3c(O)c2C(=O)C1OC1CC(OC2CC(OC3CC(C)(O)C(O)C(C)O3)C(O)C(C)O2)C(O)C(C)O1` (stereo not drawn) [Analogue 56], the GI50 came to 0.941 µM in series [1]; 1.55 µM in [2]; 1.97 µM in [3]; 0.187 µM in [4]; 1.66 µM in series [5]; 0.386 µM in series [6]. In addition, the GI50 was found to be 3.31 µM in series [7]; 0.419 µM in series [8]; 0.466 µM in [11]; 0.319 µM in [12]; 187 nM in series [13]; 1 µM in series [14]. For the same molecule, the GI50 in series [15] came to 0.262 µM; in series [16], 0.401 µM; in [17] it was 0.466 µM; in series [18] it was 0.157 µM; in [19], 2.47 µM. The “TC-32 Ewing sarcoma EWS-FLI1 Type 1 GI50” value in series [9] is 0.027 µM. In [9], the “GI50 ratio PC-3:TC-32” value was determined as 6.9. Besides, the “TC-71 EWS-FLI1 Type 1 GI50” value in series [10] worked out at 0.64 µM. The “Ratio of median GI50 Non-Ewing sarcoma cell lines (cf Table 3):5838” value in series [11] is 0.9. The “Ratio of median GI50 Prostate cells lacking TMPRSS2-ERG:VCaP” value in [12] amounted to 0.6. Also, the “Ratio of Median GI50 non-Ewing sarcoma:Ewing sarcoma (Selectivity Index)” value in [17] came out at 0.9. Moreover, in series [17], the “Selectivity Index ratio Analogues:MTM (1)” value was determined as 0.6.
